Columns and labels:
[1] = tested on: activated equine neutrophils; assay: MPO release by PMA-activated neutrophils, MPO measured by ELISA in the supernatant; type: cell-based, horse; conditions: for Inhibitory percentage, MPO assay by ELISA in the supernatant after neutrophils activation with PMA (MPO release): drug concentration 10^-5 M
Method: FIG. 16 represents the inhibitory effect of curcumin on MPO release by neutrophils incubated in PBS buffer with or without stimulation with phorbol myristate acetate (PMA) (Curcumin (Curcu) was dissolved in ethanol. MPO was measured by ELISA in the supernatant of activated neutrophils).
The ELISA developed for MPO (1) measurement is further referred to as a MYELO-ELISA. Rabbit IgG, the primary antibody (2), is immobilized (coated) in excess (3 μg/ml) onto microtitration wells (3) (Cliniplate EB, Labsystem). Standard or test antigen (equine MPO (1)) is incubated overnight with the primary antibody (2) at 4° C. After washing (0.9% NaCl solution containing 0.1% tween 20), the immobilized antibody-antigen complex is incubated (2 h, 37° C.) with an excess (5 μg/ml) of guinea pig IgG, the secondary antibody (4). After washing, a third antibody (5) produced against guinea pig IgG is added. This third IgG (5) (goat IgG) is labelled with alkaline phosphatase (6) and recognizes the “sandwich” complex “primary antibody-MPO-secondary antibody”. After washing, phosphatase activity is detected by incubation (30 min, 37° C., in the darkness) with a paranitrophenyl phosphate solution (phosphatase substrate, Sigma). The reaction is stopped with NaOH and the absorbance (405 nm) is measured with a Multiscan Ascent apparatus (Labsystem) (7). All the volumes added into the wells comprise 100 μl, except for washing (300 μl) and for the substrate solution (200 μl). Controls (blank) and dilutions of the standard MPO and samples were established with dilution buffer [PBS (20 mM phosphate, 137 mM NaCl and 2.7 mM KCl pH 7.4) to which 5 g/L bovine serum albumin and 0.1% tween 20 was added]. The same ELISA technique was developed also for monoclonal antibodies as primary antibody.
(§1) Neutrophils isolated from citrated blood of healthy horses were counted, suspended in phosphate buffer saline (PBS) at pH 7.4 and incubated 10 min at 37° C. with curcumin or THC at the final concentration of 10^−4, 10^−5 or 10^−6 M. After incubation and centrifugation (1000×g, 10 min), the neutrophils were resuspended in PBS and either activated 30 min with 8×10^−7 M phorbol myristate acetate (PMA), with a simultaneous monitoring of the chemiluminescent response in presence of lucigenin (5×10^-8 M), or activated in the same conditions followed by centrifugation and MPO measurement in the supernatant. MPO, marker of neutrophil degranulation, was measured by a specific ELISA assay raised against equine MPO. The effect of polyphenols on MPO activity was tested by SIEFED (“Specific Immunological Extraction Followed by Enzymatic Detection”) method that allows the study of drug interaction with the enzyme without reaction medium interferences.

equine MPO = assay: MPO activity by SIEFED (specific immunological extraction followed by enzymatic detection); type: biochemical, horse; conditions: for Effect on MPO activity (in words): SIEFED, polyphenol incubated with MPO, then capture, washing, enzymatic detection
Method: FIG. 17 represents the inhibitory effect of curcumin on MPO activity. Concentration of MPO used: 9 ng/ml. The incubation time of curcumin with MPO before assay by SIEFED was 30 min. (The most concentrated curcumin solution was prepared in ethanol (175 mM) and dilutions of this concentrated solution were performed with PBS buffer).
As for the ELISA test, the primary antibody, that captures MPO, is rabbit IgG (3 μg/ml). Standard MPO or unknown sample is incubated 2 h at 37° C. After washing, the peroxidase activity of MPO is detected by adding 100 μl of a 10 μM H2O2 solution and 40 μM of Amplex® Red (10-acetyl-3,7-dihydroxyphenoxazine; Molecular Probes) in phosphate buffer (50 mM, pH 7.5). After incubation in the darkness (30 min, 37° C.), the fluorescence is read at 590 nm with a Fluoroskan Ascent apparatus (Labsystems). The volumes of the primary antibody and the sample put in the wells, are 200 μl. Controls (blank) and dilutions of the samples are established with dilution buffer.
as §1
The SIEFED was applied to study the effects of two natural polyphenols (curcumin and resveratrol) on MPO activity.

[2] = tested on: activated equine neutrophils; assay: Chemiluminescence response (lucigenin) of PMA-activated equine neutrophils; type: cell-based, horse; conditions: for Inhibition percentage on chemiluminescence response of activated neutrophils: 10^-5 M, neutrophils activated with 8×10^-7 M PMA, lucigenin
Method: as §1

SMILES	Effect on the MPO release by activated neutrophils (in words) ([1]; 10^-4, 10^-5 or 10^-6 M)	Inhibitory percentage, MPO assay by ELISA in the supernatant after neutrophils activation with PMA ([1]; drug concentration 10^-4 M)	Inhibitory percentage, MPO assay by ELISA in the supernatant after neutrophils activation with PMA (MPO release) [1]	Inhibitory percentage, MPO assay by ELISA in the supernatant after neutrophils activation with PMA (MPO release) ([1]; listed as curcumin)	Inhibitory percentage, MPO assay by ELISA in the supernatant after neutrophils activation with PMA ([1]; drug concentration 10^-6 M)	Effect on MPO activity (in words) (equine MPO)	Effect on MPO activity (in words) (equine MPO; listed as curcumin)	Inhibitory percentage, MPO activity (SIEFED) (equine MPO; drug concentration 10^-4 M)	Inhibitory percentage, MPO activity (SIEFED) (equine MPO; drug concentration 10^-5 M)	Inhibitory percentage, MPO activity (SIEFED) (equine MPO; drug concentration 10^-5 M, listed as curcumin)	Inhibitory percentage, MPO activity (SIEFED) (equine MPO; drug concentration 10^-6 M)	Effect on the chemiluminescence response of activated neutrophils (in words) ([2]; 10^-4, 10^-5 or 10^-6 M)	Inhibition percentage on chemiluminescence response of activated neutrophils [2]
COc1cc(/C=C/C(=O)CC(=O)/C=C/c2ccc(O)c(OC)c2)ccc1O [Curcumin]	dose dependent inhibitory effects	83.5%	43.6%	44%	0%	dose dependent inhibitory effects	direct dose dependent inhibitory effect	96.2%	60.4%	60%	21.1%	dose dependent inhibitory effects	70%
Oc1ccc(C=Cc2cc(O)cc(O)c2)cc1 [resveratrol]	–	–	–	–	–	direct dose dependent inhibitory effect	–	–	–	–	–	–	–
COc1cc(CCC(=O)CC(=O)CCc2ccc(O)c(OC)c2)ccc1O [tetrahydrocurcumin]	–	41%	18%	–	17%	–	–	–	–	–	–	–	12%

From patent US8399208B2, “Method and kit for the measurement of neutrophil cell activation” (Universite de Liege, priority 2004, dated 2013)
